These results are taken from ChEMBL document CHEMBL1129221, “Inhibition of nitric oxide synthase by benzoxazolones” (Bioorg Med Chem Lett, 1997).

In test [1] the target is T1, Nitric oxide synthase, inducible (Homo sapiens, UniProt P35228). Put plainly: Inhibitory activity against Inducible nitric oxide synthase.
In a further test the target is T2, Nitric oxide synthase 3 (Homo sapiens, UniProt P29474).
T2 sequence (P29474 whole entry): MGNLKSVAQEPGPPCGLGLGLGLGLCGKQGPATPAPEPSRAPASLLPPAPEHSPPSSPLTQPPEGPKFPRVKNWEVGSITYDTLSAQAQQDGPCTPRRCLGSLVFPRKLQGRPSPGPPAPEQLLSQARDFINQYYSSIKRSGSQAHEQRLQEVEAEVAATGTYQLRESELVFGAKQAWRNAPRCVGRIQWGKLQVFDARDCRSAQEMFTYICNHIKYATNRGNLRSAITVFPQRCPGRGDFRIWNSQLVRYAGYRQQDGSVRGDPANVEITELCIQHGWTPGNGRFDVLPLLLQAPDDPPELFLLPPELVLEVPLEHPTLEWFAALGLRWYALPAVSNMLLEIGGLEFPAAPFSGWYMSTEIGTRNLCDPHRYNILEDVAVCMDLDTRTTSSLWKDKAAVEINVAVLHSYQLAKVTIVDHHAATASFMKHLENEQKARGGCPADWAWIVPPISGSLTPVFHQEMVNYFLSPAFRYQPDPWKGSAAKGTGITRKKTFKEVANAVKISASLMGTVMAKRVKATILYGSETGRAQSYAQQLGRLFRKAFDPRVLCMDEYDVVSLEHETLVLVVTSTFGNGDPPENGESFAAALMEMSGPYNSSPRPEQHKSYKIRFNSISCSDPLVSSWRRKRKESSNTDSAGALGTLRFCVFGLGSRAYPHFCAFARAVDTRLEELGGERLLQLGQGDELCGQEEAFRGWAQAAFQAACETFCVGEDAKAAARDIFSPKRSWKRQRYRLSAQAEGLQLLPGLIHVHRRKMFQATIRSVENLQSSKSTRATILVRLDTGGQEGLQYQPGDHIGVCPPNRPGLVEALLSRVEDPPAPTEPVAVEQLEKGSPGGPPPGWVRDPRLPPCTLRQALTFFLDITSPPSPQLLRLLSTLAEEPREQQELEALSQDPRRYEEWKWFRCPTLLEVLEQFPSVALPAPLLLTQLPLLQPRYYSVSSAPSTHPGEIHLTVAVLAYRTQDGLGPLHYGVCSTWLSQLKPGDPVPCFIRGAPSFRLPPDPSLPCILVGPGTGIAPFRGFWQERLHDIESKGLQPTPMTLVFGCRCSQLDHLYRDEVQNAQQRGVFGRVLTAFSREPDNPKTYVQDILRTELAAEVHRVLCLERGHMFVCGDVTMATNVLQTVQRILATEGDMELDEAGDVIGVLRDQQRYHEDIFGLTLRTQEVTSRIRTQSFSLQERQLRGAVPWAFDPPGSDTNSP
The test can be described thus: Inhibitory activity against Endothelial nitric oxide synthase.

For test [2], the target named is T3, Nitric oxide synthase 1 (Homo sapiens, UniProt P29475). Put plainly: Inhibitory activity against Neuronal nitric oxide synthase.
For test [3], the target named is T3, Nitric oxide synthase 1. Put plainly: Compound was evaluated for in vitro inhibitory activity against Neuronal nitric oxide synthase. The conditions noted are these: concentration not given here.
Test [4] addresses T1, Nitric oxide synthase, inducible. The test can be described thus: In vitro inhibitory activity against Inducible nitric oxide synthase at 50 uM concentration.

T1 sequence (P35228 whole entry): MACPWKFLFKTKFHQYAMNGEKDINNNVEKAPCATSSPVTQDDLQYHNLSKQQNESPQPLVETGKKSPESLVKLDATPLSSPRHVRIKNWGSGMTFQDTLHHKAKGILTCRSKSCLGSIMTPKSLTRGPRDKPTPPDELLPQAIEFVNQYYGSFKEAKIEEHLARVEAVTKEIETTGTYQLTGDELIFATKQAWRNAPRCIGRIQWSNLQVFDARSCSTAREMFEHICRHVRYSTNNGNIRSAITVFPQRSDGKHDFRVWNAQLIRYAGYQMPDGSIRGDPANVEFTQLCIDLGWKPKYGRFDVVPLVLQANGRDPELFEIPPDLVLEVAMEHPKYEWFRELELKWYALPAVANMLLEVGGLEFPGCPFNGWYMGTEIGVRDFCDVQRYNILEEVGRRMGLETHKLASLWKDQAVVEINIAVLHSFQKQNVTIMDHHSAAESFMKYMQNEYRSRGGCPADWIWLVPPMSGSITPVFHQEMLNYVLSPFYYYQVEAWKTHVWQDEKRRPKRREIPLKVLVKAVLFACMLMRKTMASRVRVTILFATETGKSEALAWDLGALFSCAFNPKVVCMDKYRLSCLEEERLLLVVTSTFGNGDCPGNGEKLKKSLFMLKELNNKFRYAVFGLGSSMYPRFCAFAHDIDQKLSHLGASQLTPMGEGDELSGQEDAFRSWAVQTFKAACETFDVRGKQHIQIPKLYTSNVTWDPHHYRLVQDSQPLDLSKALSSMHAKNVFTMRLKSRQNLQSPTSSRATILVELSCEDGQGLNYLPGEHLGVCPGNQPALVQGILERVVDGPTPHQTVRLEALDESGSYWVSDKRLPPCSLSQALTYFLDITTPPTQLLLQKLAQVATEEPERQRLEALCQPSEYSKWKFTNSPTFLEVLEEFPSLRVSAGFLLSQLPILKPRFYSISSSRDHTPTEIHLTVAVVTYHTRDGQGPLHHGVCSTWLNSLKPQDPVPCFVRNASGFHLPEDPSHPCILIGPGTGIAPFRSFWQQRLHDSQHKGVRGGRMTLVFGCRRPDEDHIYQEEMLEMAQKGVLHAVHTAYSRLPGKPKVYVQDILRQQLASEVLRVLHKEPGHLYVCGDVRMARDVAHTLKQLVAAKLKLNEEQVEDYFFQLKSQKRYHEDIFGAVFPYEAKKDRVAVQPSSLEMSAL
T3 sequence (P29475 whole entry): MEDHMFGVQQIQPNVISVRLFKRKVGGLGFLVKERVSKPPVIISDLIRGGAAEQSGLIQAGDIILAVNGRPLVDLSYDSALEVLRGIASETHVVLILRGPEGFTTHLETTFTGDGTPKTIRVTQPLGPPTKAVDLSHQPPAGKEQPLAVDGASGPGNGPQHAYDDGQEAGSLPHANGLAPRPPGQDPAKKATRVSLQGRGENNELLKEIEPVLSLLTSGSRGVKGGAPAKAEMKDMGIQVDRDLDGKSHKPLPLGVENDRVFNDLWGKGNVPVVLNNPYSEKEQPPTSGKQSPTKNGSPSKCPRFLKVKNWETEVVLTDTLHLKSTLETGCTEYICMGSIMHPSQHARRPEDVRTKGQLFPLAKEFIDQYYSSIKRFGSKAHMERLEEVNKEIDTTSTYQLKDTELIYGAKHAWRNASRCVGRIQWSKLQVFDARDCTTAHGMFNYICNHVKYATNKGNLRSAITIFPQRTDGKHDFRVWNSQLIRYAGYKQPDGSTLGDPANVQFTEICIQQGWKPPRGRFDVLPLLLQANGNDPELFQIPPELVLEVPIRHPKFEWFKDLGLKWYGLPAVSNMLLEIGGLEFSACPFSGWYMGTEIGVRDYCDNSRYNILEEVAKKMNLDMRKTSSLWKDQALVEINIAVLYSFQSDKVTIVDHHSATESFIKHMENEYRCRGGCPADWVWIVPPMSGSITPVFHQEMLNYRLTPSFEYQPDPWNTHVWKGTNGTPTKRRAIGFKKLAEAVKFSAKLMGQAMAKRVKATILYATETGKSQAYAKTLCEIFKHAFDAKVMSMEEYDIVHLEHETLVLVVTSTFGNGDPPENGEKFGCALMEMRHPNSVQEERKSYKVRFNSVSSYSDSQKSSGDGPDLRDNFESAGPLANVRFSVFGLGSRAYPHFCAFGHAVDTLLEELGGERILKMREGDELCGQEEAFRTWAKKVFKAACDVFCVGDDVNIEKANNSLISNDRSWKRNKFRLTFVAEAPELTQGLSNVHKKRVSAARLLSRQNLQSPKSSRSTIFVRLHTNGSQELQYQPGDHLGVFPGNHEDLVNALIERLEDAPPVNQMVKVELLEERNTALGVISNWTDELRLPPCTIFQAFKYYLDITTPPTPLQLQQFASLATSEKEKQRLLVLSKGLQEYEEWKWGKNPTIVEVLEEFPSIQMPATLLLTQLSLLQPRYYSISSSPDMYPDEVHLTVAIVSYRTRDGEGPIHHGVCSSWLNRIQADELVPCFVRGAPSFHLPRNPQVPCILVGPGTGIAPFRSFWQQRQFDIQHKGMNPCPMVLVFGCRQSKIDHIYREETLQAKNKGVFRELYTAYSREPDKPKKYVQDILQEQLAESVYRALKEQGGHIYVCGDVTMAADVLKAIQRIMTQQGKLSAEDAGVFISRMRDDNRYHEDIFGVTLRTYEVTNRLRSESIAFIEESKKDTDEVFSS

For the compound `N#Cc1ccc2oc(O)nc2c1`, the IC50 worked out at 14.5 µM in test [1], 50 µM against Nitric oxide synthase 3 and 50 µM at Nitric oxide synthase 1 [2].
Take `CN1CCN(Cn2c(=O)oc3ccc(Cl)cc32)CC1`: the IC50 in test [1] was 1.2 µM; against Nitric oxide synthase 3 it was 15.5 µM; at Nitric oxide synthase 1 [2], 4.4 µM.
For `Cc1ccc2[nH]c(=O)oc2c1` the same measures were more than 50 µM, more than 50 µM and 13.1 µM.
For `Cc1ccc2oc(O)nc2c1` the same measures were 9.9 µM, 10.6 µM and 50 µM.
For `O=c1oc2ccc(Cl)cc2n1CN1CCCCC1` the same measures were 1.5 µM, 18.9 µM and 4.6 µM.
Turning to `Cc1ccc2nc(O)oc2n1`, the IC50 in test [1] is 7.4 µM; on Nitric oxide synthase 3, more than 50 µM; against Nitric oxide synthase 1 [2], 50 µM.
For `Oc1nc2ncccc2o1`, the IC50 in test [1] was more than 50 µM.
For the compound `Cc1cccc2oc(=O)[nH]c12`, the IC50 (in test [1]; against Nitric oxide synthase 3; against Nitric oxide synthase 1 [2]) was more than 50 µM in each case.
Turning to `Sc1nc2cc(Cl)ccc2o1`, the IC50 (in test [1]; against Nitric oxide synthase 3; on Nitric oxide synthase 1 [2]) was more than 50 µM each time.
With `O=c1oc2ccc(Cl)cc2n1CN1CCSCC1`, the IC50 in test [1] was 3.5 µM; against Nitric oxide synthase 3, 20.3 µM; at Nitric oxide synthase 1 [2], 4.4 µM.
On to `CN(Cn1c(=O)oc2ccc(Cl)cc21)c1ccccn1`, for which the inhibition against Nitric oxide synthase 1 [3] is 71%; in test [4] it was 74%. Half-maximal inhibition at Nitric oxide synthase 3 (IC50) required 8.4 µM.
`O=c1[nH]c2cc(F)ccc2o1`: the IC50 (in test [1]; against Nitric oxide synthase 3; against Nitric oxide synthase 1 [2]) was more than 50 µM throughout.
In the case of `O=c1oc2ccc(Cl)cc2n1CN1CCOCC1`, the IC50 in test [1] amounted to 0.8 µM; at Nitric oxide synthase 3 it was 14.7 µM; against Nitric oxide synthase 1 [2], 5.6 µM.
Take `CN(Cc1ccccc1)Cn1c(=O)oc2ccc(Cl)cc21`: the IC50 was found to be 13.4 µM in test [1], 13.6 µM on Nitric oxide synthase 3 and 11.5 µM at Nitric oxide synthase 1 [2].
Take `CN(CCc1ccccc1)Cn1c(=O)oc2ccc(Cl)cc21`: the IC50 was 15.9 µM in test [1], 15.9 µM against Nitric oxide synthase 3 and 68 µM on Nitric oxide synthase 1 [2].
`O=c1oc2ccc(Cl)cc2n1CCN1CCOCC1` displayed an inhibition in test [4] of 0%.
